In patent US6432972B1, “Treating allergic and inflammatory conditions” (Schering Corporation, priority 2000, dated 2002):

Experiments:
[1] = tested on: seasonal allergic rhinitis patients; experiment: double-blinded, randomized clinical trials in seasonal allergic rhinitis patients; format: in vivo, human
Description: Efficacy endpoints in all the studies were Total Symptom Score, Total Nasal Symptom Score, Total Non-nasal Symptom Score, and Health Quality of Life (HQOL) analysis in efficacy trials. […] An important efficacy endpoint analyzed in the desloratadine studies is the AM NOW total symptom score. This parameter measures the total symptom relief by the patient after 24 hours before taking the next day dose.

[2] = stability of free base versus acid addition salt; format: physicochemical
Source text: Such pharmaceutical compositions may be formulated by combining desloratadine or an equivalent amount of a pharmaceutically acceptable salt thereof with a suitable, inert, pharmaceutically acceptable carrier or diluent that may be either solid or liquid. Desloratadine may be converted into the pharmaceutically acceptable acid addition salts by admixing it with an equivalent amount of a pharmaceutically acceptable acid. Typically suitable pharmaceutically acceptable acids include the mineral acids, e.g., HNO3, H2SO4, H3PO4, HCl, HBr, organic acids, including, but not limited to, acetic, trifluoroacetic, propionic, lactic, maleic, succinic, tartaric, glucuronic and citric acids as well as alkyl or arylsulfonic acids, such as p-toluenesulfonic acid, 2-naphthalenesulfonic acid, or methanesulfonic acid. The preferred pharmaceutically acceptable salts are trifluoroacetate, tosylate, mesylate, and chloride.

[3] = tested on: patients with SAR; experiment: pooled randomized, parallel-group, double-blind, placebo-controlled studies; nasal congestion/stuffiness severity score in patients with SAR; format: in vivo, human; details: for nasal congestion/stuffiness, 14-day average change in symptom severity score from baseline: baseline score 2.4
Description: The severity (0=none, 1=mild, 2=moderate, 3=severe) of congestion/stuffiness was assessed by patients for the study duration. The 14-day average change in symptom severity score from baseline was assessed. The mean symptom severity score for nasal congestion/stuffiness was 2.4 in each treatment group at baseline, indicating patients had moderate-to-severe nasal congestion before receiving treatment.

SMILES: Clc1ccc2c(c1)CCc1cccnc1C2=C1CCNCC1 [Desloratadine]
- total symptom scores (sum of individual scores for rhinorrhea, sneezing, congestion/stuffiness, nasal itching, itchy/burning eyes, tearing, ocular redness, itchy ears/palate) ([1]; 5 mg once daily, adult and adolescent seasonal allergic rhinitis patients): significantly reduced
- AM NOW total symptom score (symptom relief after 24 hours, before next day dose) ([1]; 5 mg to 20 mg dosage range, p<0.05): Statistically significant (p<0.05) reductions were maintained for the full 24 hour dosing interval
- reducing nasal symptoms vs placebo ([1]; 5 mg, p<0.01 vs placebo): significantly (p<0.01) more effective than placebo
- stability, free base compared with acid addition salt [2]: more stable as the free base than as an acid addition salt
- nasal congestion/stuffiness, 14-day average change in symptom severity score from baseline ([3]; 5 mg PO once a day for 14 days, P=0.02 vs placebo): significantly decreased
- total symptom severity ([3]; 5 mg or 7.5 mg PO once a day for 14 days, vs placebo): significantly decreased
- nasal congestion/stuffiness, 14-day average change in symptom severity score from baseline ([3]; 7.5 mg PO once a day for 14 days, P=0.01 vs placebo): significantly decreased
